Measurements as given in ChEMBL document CHEMBL2150972, “Hepatitis C virus protease inhibitors: patent highlight” (ACS Med Chem Lett, 2012).

How the values were obtained:
Hepatitis C virus [1] = assay: Antiviral activity against HCV assessed as inhibition of viral RNA replication by cell based luciferase reporter gene assay; assay type: functional, organism-based, Hepacivirus hominis
Hepatitis C virus [2] = assay: Antiviral activity against HCV by HCVSPF-CY1B assay; assay type: functional, organism-based, Hepacivirus hominis

| SMILES | EC50 (Hepatitis C virus [1]) [nM] | EC50 (Hepatitis C virus [2]) [nM] |
| --- | --- | --- |
| O=C(N[C@H]1CCCCC/C=C/[C@@H]2C[C@@]2(C(=O)NS(=O)(=O)C2CC2)NC(=O)[C@@H]2C[C@@H](Oc3ccncc3)CN2C1=O)OCCF | 290 | – |
| CCOc1cc(O[C@@H]2C[C@H]3C(=O)N[C@]4(C(=O)NS(=O)(=O)C5CC5)C[C@H]4/C=C/CC[C@@H]4CC4[C@H](NC(=O)c4ccn(C)n4)C(=O)N3C2)ccn1 (some centres not stated) | – | 34 |
